Test system: nerve cells in hippocampus CA1 region of hippocampus sections
Assay: long-term potentiation of excitatory postsynaptic potential (EPSP) in hippocampus sections, accumulated potential with single glass electrode
Type: cell-based, rat
Details: for EPSP reaction (ratio of largest slope value of accumulated potential to basal slope value defined as 100%): read 60 minutes after stimulation
Method: A specific example of the assessment of substances with antidepressant actions by the screening method is described below. At the cell preparation step in the Example, the brain hippocampus of an adult rat was cut vertically along the longitudinal axis using vibratome (DSK ZERO1, manufactured by DOUSAKA EM K.K), to prepare plural longitudinal cross- sectional sections of a thickness of 400 μm. In this Example, a part of the hippocampus sections is prepared as a candidate substance treatment group, while another part of the hippocampus sections is prepared as a control treatment group and an additional part of the hippocampus sections is prepared as non-treatment group. These hippocampus sections were immersed in an artificial cerebrospinal fluid sufficiently saturated with a mixture gas of oxygen and carbon dioxide (95% oxygen gas, 5% carbon dioxide gas) and left to stand at room temperature for 1.5 hours or more under the purge of the mixture gas from the above over the hippocampus sections. Thereafter, the electrophysiological response was assayed as described below. As the artificial cerebrospinal fluid, an aqueous solution containing 124 mM NaCl, 1.25 mM NaH2PO4.2H2O, 5 mM KCl, 2 mM MgSO4.7H2O, 2 mM CaCl2, 22 mM NaHCO3, and 10 mM glucose was used. […] At the cell preparation step, additionally, the presynaptic fibers in the CA1 regions of the hippocampus sections were repeatedly stimulated at an interval of 20 seconds, using the stimulation electrode, while excitatory postsynaptic potential induced by the electric stimulation was recorded as accumulated potential over about 30 minutes. […] Therefore, it was determined to assess the dimension of the slope in the part M with the most rapid change of the accumulated potential on the stimulation [namely, the largest slope on the earlier side of the assay time period of accumulated potential waveform (on the left side)] […]

| Structure (SMILES) | EPSP reaction (ratio of largest slope value of accumulated potential to basal slope value defined as 100%) (estradiol 1 nM together with corticosteron 1 μM perfused 30 minutes before 100-Hz high-frequency stimulation) | reduction of the level of the long-term potentiation [dimension (%) of EPSP reaction] (contact to corticosteron 1 μM versus non-treatment group, 60 minutes after high-frequency stimulation) | EPSP reaction (ratio of largest slope value of accumulated potential to basal slope value defined as 100%) (corticosteron 1 μM alone perfused 30 minutes before 100-Hz high-frequency stimulation, non-treatment group about 130%) |
| --- | --- | --- | --- |
| C[C@]12CC[C@@H]3c4ccc(O)cc4CC[C@H]3[C@@H]1CC[C@@H]2O [estradiol] | about 130% | – | – |
| C[C@]12C[C@H](O)[C@H]3[C@@H](CCC4=CC(=O)CC[C@@]43C)[C@@H]1CC[C@@H]2C(=O)CO [corticosteron] | – | about 20% | about 110% |

From patent US20060263760A1, “Screening method of substance with antidepressant action” (THE UNIVERSITY OF TOKYO, priority 2005, published 2006)
